Measurements: US12318373B2, “Methods of treating gastrointestinal stromal tumors” (Deciphera Pharmaceuticals, LLC, priority 2019, dated 2025)

Tests used:
GIST [1] = experiment: Example 4: phase 1 study, efficacy by line of therapy at 150 mg QD; type: in vivo, human
Procedure: Efficacy and safety results from the escalation and expansion phases of a phase 1 study for patients with GIST treated at ripretinib 150 mg QD as the starting dose in 28-day cycles are presented. Local, investigator-assessed Response Evaluation Criteria in Solid Tumors (RECIST 1.1) response assessments were performed every 2 cycles, and patients in the expansion cohorts who progressed per RECIST 1.1 were allowed to dose escalate to 150 mg BID.
142 patients with GIST in the escalation and expansion phases were treated at 150 mg QD dose. Number of patients by line of therapy were as follows: 31 2nd line, 28 3rd line, and 83≥4th line patients. 135 patients (95.1%) had KIT-mutant GIST, and 7 patients (4.9%) had PDGFRA-mutant GIST.
For example, the confirmed-only complete response (CR), partial response (PR), stable disease, and progressive disease are presented in Table 4. The objective response rate data in Table 4 relates to the proportion of patients with CR+PR. The median PFS data in Table 4 refers to progression-free survival per investigator assessment, by line of therapy.

[2] = Example 7: coadministration with strong CYP3A inhibitor (itraconazole), exposure; type: in vivo; conditions: coadministration of ripretinib with itraconazole
[3] = Example 9: food effect (high-fat meal) on exposure; type: in vivo
Procedure: The effect of a high-fat breakfast on ripretinib and Compound A exposure was evaluated. A high fat meal consisted of approximately 150, 250, and 500-600 calories from protein, carbohydrate, and fat, respectively. […] Therefore, ripretinib may be taken with or without food at approximately same time each day.

[4] = Example 8: coadministration with proton-pump inhibitor (pantoprazole), exposure; type: in vivo
Procedure: The effect of a proton-pump inhibitor on the exposure of ripretinib was evaluated.

GIST [5] = experiment: Example 3: clinical study in second-line through fourth-line plus GIST, efficacy at ≥100 mg daily; type: in vivo, human; conditions: for Objective Response Rate by Best Response Includes Unconfirmed: RECIST 1.1, investigator-assessed
Procedure: Results. Data from 178 GIST patients receiving ripretinib at doses of ≥100 mg daily are noted in Table 2. The table includes investigator-assessed objective response rate (ORR) by best response, disease control rate (DCR) and median progression free survival (mPFS), all of which were determined by Response Evaluation Criteria in Solid Tumors (RECIST) version 1.1.

[6] = tested on: patients with advanced GIST; experiment: Example 2/6: safety, treatment-emergent adverse events; type: in vivo, human
Procedure: This study was a randomized (2:1), double-blind, placebo-controlled, international, multicenter study to evaluate the safety, tolerability, and efficacy of ripretinib compared to placebo in 129 patients with advanced GIST whose previous therapies have included at least imatinib, sunitinib, and regorafenib. Patients were randomized 2:1 to either 150 mg of ripretinib or placebo once daily. The primary efficacy endpoint is progression-free survival (PFS) as determined by independent radiologic review using modified Response Evaluation Criteria in Solid Tumors (RECIST). Secondary endpoints as determined by independent radiologic review using modified RECIST include Objective Response Rate (ORR), Time to Tumor Progression (TTP) and Overall Survival (OS).
Grade 3 or 4 treatment-emergent adverse events (TEAEs) occurred in 42 (49%) patients on the ripretinib arm compared to 19 (44%) on the placebo arm. Grade 3 or 4 TEAEs>5% of patients in the ripretinib arm were anemia (9%; n=8), abdominal pain (7%; n=6) and hypertension (7%; n=6). Grade 3 or 4 TEAEs>5% of patients in the placebo arm were anemia (14%; n=6). Table 1 lists TEAEs>15% in the ripretinib arm compared to placebo.
The safety of ripretinib and the impact of alopecia and palmar-plantar erythrodysesthesia (PPES) on patient-reported outcomes (PROs) of patients treated in the study described in Example 2 herein are described. […] When stratified by alopecia and PPES, patient reported assessments of function, overall health, and overall quality of life were maintained over time.

Solubility = type: physicochemical
[7] = tested on: patients with advanced GIST; experiment: Example 2: patient reported outcomes (EQ-5D-5L VAS, EORTC QLQ-C30); type: in vivo, human; conditions: 150 mg QD
Procedure: Patient reported outcomes were assessed by EQ-5D-5L, which provides a visual analogue scale (VAS), and EORTC QLQ-C30, which provides physical function and role function scales. The EQ-5D-5L VAS (or EQ-VAS) records the respondent's overall current health on a vertical visual analogue scale and provides a quantitative measure of the patient's perception of overall health. These patient outcomes were reported across 28-day cycles of receiving 150 mg QD ripretinib or placebo.
The EORTC QLQ-C30 is an assessment of function and symptoms of therapy by cancer patient, and is not specific to any cancer. The EORTC QLQ-C30 is a 30-question plus one global health status, including 5 functional scales, 3 symptom scales and a global health status.

[8] = 150 mg dose with a high-fat meal

CCn1c(=O)c(-c2cc(NC(=O)Nc3ccccc3)c(F)cc2Br)cc2cnc(NC)cc21 [ripretinib]
Duration of response, Median (GIST [1]; 150 mg QD, 2nd Line): 80 weeks
Best response (confirmed only): PR, % (GIST [1]; 150 mg QD, 2nd Line (n = 31)): (19.4) %
Best response (confirmed only): Progressive disease, % (GIST [1]; 150 mg QD, 2nd Line (n = 31)): (12.9) %
Best response (confirmed only): Stable disease, % (GIST [1]; 150 mg QD, 2nd Line (n = 31)): (67.7) %
PFS, Median (GIST [1]; 150 mg QD, 2nd Line (n = 31), investigator assessment): 46.4 weeks
Duration of response: Number of events (GIST [1]; 150 mg QD, 2nd Line, n = 6 responders): 3
Best response (confirmed only): PR, % (GIST [1]; 150 mg QD, 3rd Line (n = 28)): (14.3) %
Best response (confirmed only): Progressive disease, % (GIST [1]; 150 mg QD, 3rd Line (n = 28)): (21.4) %
Best response (confirmed only): Stable disease, % (GIST [1]; 150 mg QD, 3rd Line (n = 28)): (64.3) %
PFS, Median (GIST [1]; 150 mg QD, 3rd Line (n = 28), investigator assessment): 36.3 weeks
Duration of response: Number of events (GIST [1]; 150 mg QD, 3rd Line, n = 4 responders): 1
Duration of response, Median (GIST [1]; 150 mg QD, ≥4th Line): 76.1 weeks
Best response (confirmed only): No response assessment, % (GIST [1]; 150 mg QD, ≥4th Line (n = 83)): (6.0) %
Best response (confirmed only): Not evaluable, % (GIST [1]; 150 mg QD, ≥4th Line (n = 83)): (1.2) %
Best response (confirmed only): PR, % (GIST [1]; 150 mg QD, ≥4th Line (n = 83)): (7.2) %
Best response (confirmed only): Progressive disease, % (GIST [1]; 150 mg QD, ≥4th Line (n = 83)): (26.5) %
Best response (confirmed only): Stable disease, % (GIST [1]; 150 mg QD, ≥4th Line (n = 83)): (59.0) %
PFS, Median (GIST [1]; 150 mg QD, ≥4th Line (n = 83), investigator assessment): 23.9 weeks
Duration of response: Number of events (GIST [1]; 150 mg QD, ≥4th Line, n = 6 responders): 3
PFS of second and third-line patients with Exons 9, 11, 13, or 17 KIT mutations (GIST [1]; FIG. 27): comparable PFS
Clinical benefit after dose escalation to 150 mg BID (PFS1 vs PFS2) (GIST [1]; regardless of line of therapy, investigator assessment, FIGS. 25A, 25B): additional clinical benefit
Increase in AUC0-inf [2]: 99%
Increase in Cmax [2]: 36%
AUC0-24h higher by [3, 8]: 30%
Cmax higher by [3, 8]: 22%
Clinical significance of the food effect ([3]; based on exposure-response analysis): not considered to be clinically significant
Effect on ripretinib exposure ([4]; 40 mg QD pantoprazole with 150 mg QD ripretinib): did not affect
Difference in plasma exposure ([4]; ripretinib coadministered with pantoprazole): No clinically significant differences
Disease Control Rate at 3 Months (GIST [5]; Fourth-Line (n = 60)): 73%
Median Progression Free Survival (mPFS) (GIST [5]; Fourth-Line (n = 60)): 30 weeks
Objective Response Rate by Best Response (Confirmed Only) (GIST [5]; Fourth-Line (n = 60)): (8%)
Objective Response Rate by Best Response Includes Unconfirmed (GIST [5]; Fourth-Line (n = 60)): 15%
Disease Control Rate at 3 Months (GIST [5]; Second-Line (n = 37)): 81%
Median Progression Free Survival (mPFS) (GIST [5]; Second-Line (n = 37)): 42 weeks
Objective Response Rate by Best Response (Confirmed Only) (GIST [5]; Second-Line (n = 37)): (22%)
Objective Response Rate by Best Response Includes Unconfirmed (GIST [5]; Second-Line (n = 37)): 30%
Disease Control Rate at 3 Months (GIST [5]; Third-Line (n = 31)): 80%
Median Progression Free Survival (mPFS) (GIST [5]; Third-Line (n = 31)): 40 weeks
Objective Response Rate by Best Response (Confirmed Only) (GIST [5]; Third-Line (n = 31)): (13%)
Objective Response Rate by Best Response Includes Unconfirmed (GIST [5]; Third-Line (n = 31)): 23%
Disease Control Rate at 3 Months (GIST [5]; ≥Fourth-Line (n = 110)): 66%
Median Progression Free Survival (mPFS) (GIST [5]; ≥Fourth-Line (n = 110)): 24 weeks
Objective Response Rate by Best Response (Confirmed Only) (GIST [5]; ≥Fourth-Line (n = 110)): (7%)
Objective Response Rate by Best Response Includes Unconfirmed (GIST [5]; ≥Fourth-Line (n = 110)): 11%
Alopecia in females (females vs males) ([6]; female, human, in vivo): 56.8%
Grade 3 or 4 abdominal pain: patients, % ([6]; human, in vivo): 7%
Grade 3 or 4 abdominal pain: patients, number ([6]; human, in vivo): 6
Grade 3 or 4 anemia: patients, number ([6]; human, in vivo): 8
Grade 3 or 4 hypertension: patients, % ([6]; human, in vivo): 7%
Grade 3 or 4 hypertension: patients, number ([6]; human, in vivo): 6
Patients with a TEAE leading to dose interruption ([6]; human, in vivo): 23.5%
Patients with a TEAE leading to dose reduction ([6]; human, in vivo): 7.1%
Grade 3/4 alopecia ([6]; in vivo): no patients
Grade 3 PPES ([6]; in vivo): no patients
Overall safety and tolerability profile ([6]; in vivo): favorable overall safety and tolerability profile
Serious adverse events of alopecia or PPES ([6]; in vivo): no serious adverse events
TEAEs during the crossover period ([6]; in vivo): no safety concerns
Alopecia in males (females vs males) ([6]; male, human, in vivo): 43.2%
Patients with a TEAE leading to death ([6]; ripretinib arm): 5.9%
Solubility (Solubility): pH-dependent solubility
EORTC QLQ-C30 role function score, average improvement from baseline to C2D1 ([7]; 70 patients): 3.5
EQ-VAS score, average improvement from baseline to Cycle 2, Day 1 (C2D1) ([7]; 70 patients): 3.7
EORTC QLQ-C30 physical function score, average improvement from baseline to C2D1 ([7]; 71 patients): 1.6
EORTC QLQ-C30 Question C29 (overall health) score improvement ([7]; scale 1 to 7, 70 patients): 0.20
EORTC QLQ-C30 Question C30 (overall quality of life) score improvement ([7]; scale 1 to 7, 70 patients): 0.28
